# From US11046697B2, “Compounds and compositions useful for treating disorders related to NTRK” (BLUEPRINT MEDICINES CORPORATION, priority 2015, dated 2021)
# Like-named read-outs stand apart in the source and are kept apart here.
# Assays:
# [1] = system: KM12 Cliff (G595R) cell line; assay: NTRK G595R mutant cellular assay (CellTiter-Glo growth inhibition); type: cell-based; conditions: for IC50: 72 hr, CellTiter-Glo
# Protocol: (§1) NTRK Wild Type and G595R Mutant Cellular Assays Protocol
# (§2) KM12 wild type colon carcinoma cell line harboring the TPM3-NTRK1 fusion protein was obtained from the National Cancer Institute (NCI). This line has been previously shown to be dependent upon the NTRK activity derived from the NTRK fusion protein for growth and survival. […] Cells were first plated in 384-well plates at 1000 cells/well in complete media (10% FBS and 1% pen/strep) and incubated overnight at 37° C. Cells were then dosed with test articles at varying concentrations using the Bravo liquid handling system. […] Each compound was run in duplicate per plate. […] 72 hr after dosing, assay plates were developed using CellTiter-Glo (Promega) and resultant luminescence was read on the Envision plate reader. IC50 determinations were calculated using a 4-parameter curve fitting algorithm
# [2] = system: KM12 wild type colon carcinoma cell line harboring the TPM3-NTRK1 fusion protein; assay: NTRK wild type cellular assay (CellTiter-Glo growth inhibition); type: cell-based; conditions: for IC50: 72 hr, CellTiter-Glo, read-out: KM12 (WT) IC50
# Protocol: as §1, §2
# wild type NTRK1 enzyme = target: T1, wild type NTRK1 enzyme (Homo sapiens, UniProt P04629); assay: NTRK1 Wild Type Assay at 1 mM ATP; type: biochemical; conditions: 1 mM ATP; read-out: Enz NTRK1 IC50
# T1 construct: purchased BPS Bioscience 40280
# Protocol: NTRK1 Wild Type Assay at 1 mM ATP
# The reaction was stopped by the addition of 70 μL of Stop buffer (100 mM HEPES pH 7.5, 0.015% Brij 35, 35 mM EDTA and 0.2% of Coating Reagent 3 (Caliper Lifesciences)). The plate was then read on a Caliper EZReader 2 (protocol settings: −1.7 psi, upstream voltage −500, downstream voltage −3000, post sample sip 35s).
# T1 sequence (P04629 440-796 limits assumed): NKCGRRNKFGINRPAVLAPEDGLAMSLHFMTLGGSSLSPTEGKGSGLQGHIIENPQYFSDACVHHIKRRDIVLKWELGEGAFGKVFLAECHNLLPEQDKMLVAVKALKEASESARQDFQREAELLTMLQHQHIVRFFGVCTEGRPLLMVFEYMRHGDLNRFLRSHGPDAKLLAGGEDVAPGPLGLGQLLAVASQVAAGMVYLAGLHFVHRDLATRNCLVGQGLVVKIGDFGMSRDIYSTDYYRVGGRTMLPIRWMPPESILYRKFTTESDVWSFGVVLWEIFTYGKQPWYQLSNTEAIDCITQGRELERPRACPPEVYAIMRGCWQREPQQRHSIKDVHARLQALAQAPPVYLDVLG
Structure (SMILES),"IC50 ([1]; Homo sapiens, KM12, 72 h) [nM]","IC50 ([2]; Homo sapiens, KM12, 72 h) [nM]",IC50 (wild type NTRK1 enzyme) [nM],IC50 [1] [nM],IC50 [2] [nM],"GI50 ([1]; Homo sapiens, KM12, G595R mutant NTRK fusion cells) [nM]","GI50 ([2]; Homo sapiens, KM12, wild-type NTRK fusion cells, read-out: NTRK wt Cellular GI50) [nM]"
O=C(NCc1cc(F)ccc1F)c1n[nH]c2ncnc(N[C@@H]3C[C@@H](F)C[C@H]3O)c12 (relative stereo) [Compound 17],100 to 1000,10 to 100,10 to 100,–,–,–,–
O=C(NCc1cc(F)ccc1F)c1n[nH]c2ncnc(N[C@@H]3CC[C@@H](F)[C@H]3O)c12 (relative stereo) [Compound 19],> 1000,> 1000,> 1000,–,–,–,–
O=C(NCc1cc(F)ccc1F)c1n[nH]c2ncnc(N[C@@H]3CCC[C@H]3O)c12 [Compound 1],10 to 100,10 to 100,10 to 100,–,–,–,–
Cc1ccc(F)cc1CNC(=O)c1n[nH]c2ncnc(N[C@@H]3CC[C@@H](O)[C@H]3O)c12 [Compound 2],100 to 1000,100 to 1000,100 to 1000,–,–,–,–
O=C(NCc1cc(F)ccc1F)c1n[nH]c2ncnc(N[C@@H]3[C@H]4C[C@H]4C[C@H]3O)c12 [Compound 3],> 1000,> 1000,> 1000,–,–,–,–
O=C(NCc1cc(F)ccc1F)c1n[nH]c2ncnc(N[C@@H]3C[C@H]4C[C@H]4[C@H]3O)c12 [Compound 4],> 1000,> 1000,100 to 1000,–,–,–,–
CN(Cc1cncc(F)c1)C(=O)c1n[nH]c2ncnc(N[C@@H]3CC[C@@H](O)[C@H]3O)c12 [Compound 5],100 to 1000,100 to 1000,100 to 1000,–,–,–,–
CN(Cc1cc(F)ccc1F)C(=O)c1n[nH]c2ncnc(N[C@@H]3CCC[C@H]3O)c12 [Compound 6],10 to 100,10 to 100,< 10,–,–,–,–
C[C@@H](NC(=O)c1n[nH]c2ncnc(N[C@@H]3CCC[C@H]3O)c12)c1cc(F)ccc1F [Compound 7],10 to 100,10 to 100,10 to 100,–,–,–,–
O=C(NCc1cc(F)ccc1F)c1n[nH]c2ncnc(N[C@@H]3COCC[C@H]3O)c12 [Compound 8],100 to 1000,10 to 100,10 to 100,–,–,–,–
O=C(NCc1cc(F)ccc1F)c1n[nH]c2ncnc(NC3CCC(O)C3O)c12 (stereo not shown) [Compound 9],–,–,10 to 100,100 to 1000,10 to 100,–,–
O=C(NCc1cc(F)ccc1F)c1n[nH]c2ncnc(NC3CCC(O)C3O)c12 (stereo not shown) [Compound 10],–,–,100 to 1000,> 1000,100 to 1000,–,–
O=C(NCc1cc(F)ccc1F)c1n[nH]c2ncnc(N[C@@H]3CCOC[C@H]3O)c12 [Compound 11],100 to 1000,100 to 1000,100 to 1000,–,–,–,–
O=C(NCc1cc(F)ccc1F)c1n[nH]c2ncnc(NC3CC(O)CC3O)c12 (stereo not shown) [Compound 12],> 1000,100 to 1000,100 to 1000,–,–,–,–
O=C(NCc1cc(F)ccc1F)c1n[nH]c2ncnc(NC3CC(O)CC3O)c12 (stereo not shown) [Compound 13],–,–,10 to 100,100 to 1000,10 to 100,–,–
O=C(NCc1cc(F)ccc1F)c1n[nH]c2ncnc(NC3CC(F)CC3O)c12 (stereo not shown) [Compound 14],–,–,100 to 1000,100 to 1000,100 to 1000,–,–
O=C(NCc1cc(F)ccc1F)c1n[nH]c2ncnc(NC3CC(F)CC3O)c12 (stereo not shown) [Compound 15],–,–,100 to 1000,> 1000,100 to 1000,–,–
O=C(NCc1cc(F)ccc1F)c1n[nH]c2ncnc(NC3CC(F)CC3O)c12 (stereo not shown) [Compound 16],–,–,100 to 1000,> 1000,> 1000,–,–
O=C(NCc1cc(F)ccc1F)c1n[nH]c2ncnc(NC3CCC(F)C3O)c12 (stereo not shown) [Compound 18],–,–,100 to 1000,> 1000,100 to 1000,–,–
N#Cc1cc(F)cc(CNC(=O)c2n[nH]c3ncnc(N[C@@H]4CC[C@@H](O)[C@H]4O)c23)c1 [Compound 22],> 1000,> 1000,100 to 1000,–,–,–,–
Cc1ccc(F)cc1CN(C)C(=O)c1n[nH]c2ncnc(NC3CCC(O)C3O)c12 (stereo not shown) [Compound 23],–,–,< 10,10 to 100,10 to 100,–,–
COc1ccc(F)cc1CNC(=O)c1n[nH]c2ncnc(N[C@@H]3COCC[C@H]3O)c12 [Compound 24],100 to 1000,100 to 1000,10 to 100,–,–,–,–
O=C(NCc1cc(F)ccc1F)c1n[nH]c2ncnc(N[C@H]3[C@H](O)[C@H](O)[C@@H]4C[C@@H]43)c12 [Compound 25],100 to 1000,10 to 100,10 to 100,–,–,–,–
CCN(Cc1cc(F)ccc1F)C(=O)c1n[nH]c2ncnc(NC3CCCC3O)c12 (stereo not shown) [Compound 26],–,–,10 to 100,100 to 1000,10 to 100,–,–

Structure (SMILES),"IC50 ([1]; Homo sapiens, KM12, 72 h) [nM]","IC50 ([2]; Homo sapiens, KM12, 72 h) [nM]",IC50 (wild type NTRK1 enzyme) [nM],IC50 [1] [nM],IC50 [2] [nM],"GI50 ([1]; Homo sapiens, KM12, G595R mutant NTRK fusion cells) [nM]","GI50 ([2]; Homo sapiens, KM12, wild-type NTRK fusion cells, read-out: NTRK wt Cellular GI50) [nM]"
O=C(NC(CO)c1cc(F)ccc1F)c1n[nH]c2ncnc(NC3CCCC3O)c12 (stereo not shown) [Compound 27],–,–,< 10,10 to 100,10 to 100,–,–
CN(Cc1cc(F)ccc1F)C(=O)c1n[nH]c2ncnc(NC3CCC(O)C3O)c12 (stereo not shown) [Compound 28],–,–,< 10,10 to 100,10 to 100,–,–
CN(Cc1cc(F)ccc1F)C(=O)c1n[nH]c2ncnc(N[C@@H]3COCC[C@H]3O)c12 [Compound 29],10 to 100,10 to 100,< 10,–,–,–,–
C[C@@H](NC(=O)c1n[nH]c2ncnc(N[C@@H]3COCC[C@H]3O)c12)c1cc(F)ccc1F [Compound 30],100 to 1000,10 to 100,100 to 1000,–,–,–,–
CC(NC(=O)c1n[nH]c2ncnc(NC3CCOCC3O)c12)c1cc(F)ccc1F (stereo not shown) [Compound 31],–,–,100 to 1000,100 to 1000,100 to 1000,–,–
O=C(NCc1cc(F)ccc1F)c1n[nH]c2ncnc(N[C@@H]3CCC[C@@H](O)[C@H]3O)c12 [Compound 32],100 to 1000,100 to 1000,10 to 100,–,–,–,–
CN(Cc1cc(F)cc(F)c1)C(=O)c1n[nH]c2ncnc(NC3CCC(O)C3O)c12 (stereo not shown) [Compound 33],–,–,10 to 100,10 to 100,10 to 100,–,–
CC(NC(=O)c1n[nH]c2ncnc(NC3CCC(O)C3O)c12)c1cc(F)ccc1F (stereo not shown) [Compound 34],–,–,10 to 100,100 to 1000,10 to 100,–,–
CC(NC(=O)c1n[nH]c2ncnc(NC3CCC(O)C3O)c12)c1cc(F)ccc1F (stereo not shown) [Compound 35],–,–,100 to 1000,> 1000,100 to 1000,–,–
O=C(NCc1cc(F)ccc1Cl)c1n[nH]c2ncnc(N[C@@H]3CC[C@@H](O)[C@H]3O)c12 [Compound 36],100 to 1000,100 to 1000,10 to 100,–,–,–,–
O=C(NCc1cc(F)ccc1Cl)c1n[nH]c2ncnc(N[C@@H]3COCC[C@H]3O)c12 [Compound 37],–,–,10 to 100,100 to 1000,100 to 1000,–,–
O=C(NCc1cc(F)cc(Cl)c1)c1n[nH]c2ncnc(NC3CCC(O)C3O)c12 (stereo not shown) [Compound 38],–,–,100 to 1000,100 to 1000,100 to 1000,–,–
[2H]C([2H])([2H])N(Cc1cc(F)ccc1F)C(=O)c1n[nH]c2ncnc(N[C@@H]3COCC[C@H]3O)c12 [Compound 39],10 to 100,10 to 100,< 10,–,–,–,–
O=C(NCc1cc(F)cc(F)c1F)c1n[nH]c2ncnc(N[C@@H]3COCC[C@H]3O)c12 [Compound 40],–,–,10 to 100,100 to 1000,100 to 1000,–,–
O=C(NCc1cc(F)cc(F)c1F)c1n[nH]c2ncnc(N[C@@H]3CC[C@@H](O)[C@H]3O)c12 [Compound 41],100 to 1000,100 to 1000,10 to 100,–,–,–,–
O=C(NCc1cc(F)ccc1F)c1n[nH]c2ncnc(NC3CC(F)(F)CC3O)c12 (stereo not shown) [Compound 42],–,–,100 to 1000,> 1000,> 1000,–,–
O=C(NCc1cc(F)ccc1F)c1n[nH]c2ncnc(NC3CC(F)(F)CC3O)c12 (stereo not shown) [Compound 43],–,–,10 to 100,100 to 1000,10 to 100,–,–
CN(Cc1cc(F)cc(C#N)c1)C(=O)c1n[nH]c2ncnc(NC3CCC(O)C3O)c12 (stereo not shown) [Compound 44],–,–,10 to 100,100 to 1000,10 to 100,–,–
"O=C(c1n[nH]c2ncnc(N[C@@H]3CCC[C@H]3O)c12)N1CCC[C@@H]1c1cc(F)ccc1F [Compound 45, ((R)-2-(2,5-difluorophenyl)pyrrolidin-1-yl)(4-(((1R,2R)-2-hydroxycyclopentyl)amino)-1H-pyrazolo[3,4-d]pyrimidin-3-yl)methanone]",< 10,< 10,< 10,–,–,–,–
O=C(c1n[nH]c2ncnc(NC3CCCC3O)c12)N1CC(F)CC1c1cncc(F)c1 (stereo not shown) [Compound 46],–,–,< 10,< 10,< 10,–,–
O=C(NC1(c2cc(F)ccc2F)CC1)c1n[nH]c2ncnc(N[C@@H]3COCC[C@H]3O)c12 [Compound 47],–,–,100 to 1000,100 to 1000,100 to 1000,–,–
COc1cc(F)cc(CN(C)C(=O)c2n[nH]c3ncnc(N[C@@H]4CC[C@@H](O)[C@H]4O)c23)c1 [Compound 48],100 to 1000,10 to 100,10 to 100,–,–,–,–
O=C(c1n[nH]c2ncnc(NC3CCOCC3O)c12)N1CC(F)CC1c1cc(F)ccc1OC(F)F (stereo not shown) [Compound 238],–,–,–,10 to 100,10 to 100,–,–
"C[C@@H](Oc1cc(-c2cnn(C3CCNCC3)c2)cnc1N)c1c(Cl)ccc(F)c1Cl [Crizotinib, crizotinib, reference compound]",–,–,–,–,–,9000,87
